# From patent US12624012B2, “14-chloro-β-elemene nitric oxide donor derivative and preparation method and use thereof” (HANGZHOU NORMAL UNIVERSITY, priority 2021, dated 2026)
# Like-named read-outs stand apart in the source and are kept apart here.
# Experiments:
# [1] = In vitro NO release test (incubation with L-cysteine, OD at 550 nm); details: 100 μM solution with cysteine solution, 37° C.
# Description: • (1) Sodium nitrite solutions with different concentrations were prepared. A calibration curve was drawn. • (2) The sample was treated. A 100 μM solution was prepared. 2.5 mL of the prepared compound solution and 2.5 mL of the cysteine solution were taken and incubated at 37° C. for 120 min, and the resulting mixture was sampled at different time points. • (3) A blank hole and a standard hole were set. 160 μL of the sample was collected and mixed evenly with 0.08 mL of a developer and stood at 37° C. for 15 min. At λ=550 nm, the OD value of absorbance was measured by the enzyme marker. The NO release levels were obtained by substituting the value into the standard curve.
# SW620 = test: In vitro anti-tumor activity evaluation test (CCK-8), SW620; assay type: cell-based, human; details: for inhibition at 1 µM: read-out: Inhibitory rates against tumor cell lines; for IC50: read-out: IC50 against different tumor cell lines
# Description: (§1) • (1) Cells were digested and counted. Cell suspensions (H520, SW620 5.0×10^4 cells/mL, and U87MG 3.5×10^4 cells/mL) were prepared. 100 μL of cell suspension was added to each well of a 96-well cell culture plate. • (2) The 96-well cell culture plate was incubated in a 37° C., 5%, CO2 incubator for 24 h. • (3) A drug was diluted with a culture medium to a desired working solution concentration. 100 μL of the corresponding drug-containing culture medium was added to each well. At the same time, a negative control group and a positive control group were set up. • (4) The 96-well cell culture plate was incubated in a 37° C., 5%, CO2 incubator for 72 h. • (5) The 96-well plate was stained with CCK-8, and at λ=450 nm, the OD value was determined. • 1) 10 μL of CCK-8 was added to each well. The culture plate continued to be incubated in the incubator for 2-3 h. • 2) The culture plate was rocked for 10 min to gently mix and remove air bubbles from the 96-well plate. • 3) At λ=450 nm, the OD value of each well was read by the enzyme marker, and the inhibitory rates were calculated. • (6) According to the following equation (1), the growth inhibitory rate of the tumor cells was obtained. The obtained results were substituted into an IC 50 calculation software SPSS17.0 to find out the IC50 value.
# U87MG = test: In vitro anti-tumor activity evaluation test (CCK-8), U87MG; assay type: cell-based, human; details: 72 h; for inhibition at 1 µM: read-out: Inhibitory rates against tumor cell lines; for IC50: read-out: IC50 against different tumor cell lines
# Description: as §1
# NCI-H520 = test: In vitro anti-tumor activity evaluation test (CCK-8), NCI-H520; assay type: cell-based, human; details: for inhibition at 1 µM: read-out: Inhibitory rates against tumor cell lines; for IC50: read-out: IC50 against different tumor cell lines
# Description: as §1
# [2] = Homo sapiens, SW-620, SW620, 1 μM, 72 h
# [3] = Homo sapiens, SW-620, SW620, 72 h
# [4] = Homo sapiens, U-87 MG, U87MG, 1 μM
# [5] = Homo sapiens, NCI-H520, 1 μM, 72 h
Structure (SMILES),"IC50 (U87MG; Homo sapiens, U-87 MG, U87MG)","IC50 (NCI-H520; Homo sapiens, NCI-H520, 72 h)",NO-release concentrations ([1]; 5 min),NO-release concentrations ([1]; 10 min),NO-release concentrations ([1]; 20 min),NO-release concentrations ([1]; 30 min),NO-release concentrations ([1]; 60 min),NO-release concentrations ([1]; 90 min),NO-release concentrations ([1]; 120 min),inhibition at 1 µM (SW620; [2]),inhibition at 1 µM (U87MG; [4]),inhibition at 1 µM (NCI-H520; [5]),also measured
C=C[C@]1(C)CC[C@@H](C(=C)CN(CCOC(=O)CCCC(=O)OCC#CCOc2no[n+]([O-])c2S(=O)(=O)c2ccccc2)C(C)C)C[C@H]1C(=C)CCl [Example 8],,,10.55 µM,12.34 µM,15.52 µM,18.95 µM,29.50 µM,43.00 µM,55.33 µM,10.8 ± 3.2%,4.5 ± 1%,5.6 ± 1.6%,
"C=C[C@]1(C)CC[C@@H](C(=C)CN(C)CCOC(=O)CCC(=O)OCC#CCOc2no[n+]([O-])c2S(=O)(=O)c2ccccc2)C[C@H]1C(=C)CCl [Example 3, 4-((4-((4-(2-((2-((1R,3R,4S)-3-(3-chloroprop-1-en-2-yl)-4-methyl-4-vinylcyclohexyl)allyl)(methyl)amino)ethyoxyl)-4-oxobutanoyl)oxy)but-2-yn-1-yl)oxy)-3-(phenylsulfonyl)-1,2,5-oxadiazole 2-oxide]",,,10.78 µM,12.02 µM,15.83 µM,19.79 µM,32.99 µM,48.39 µM,58.84 µM,30.1 ± 5.2%,34.9 ± 0.6%,35 ± 2.2%,
"C=C[C@]1(C)CC[C@@H](C(=C)CN(C)CCOC(=O)CCCC(=O)OCCOc2no[n+]([O-])c2S(=O)(=O)c2ccccc2)C[C@H]1C(=C)CCl [Example 2, 4-(2-((5-(2-((2-((1R,3R,4S)-3-(3-chloroprop-1-en-2-yl)-4-methyl-4-vinylcyclohexyl)allyl)(methyl)amino)ethyoxyl)-5-oxopentanoyl)oxy)ethyoxyl)-3-(phenylsulfonyl)-1,2,5-oxadiazole 2-oxide]",358 ± 23 nM,777 ± 24 nM,2.10 µM,2.40 µM,2.84 µM,3.79 µM,6.74 µM,10.72 µM,14.97 µM,42.3 ± 3.7%,56 ± 2.1%,48.5 ± 3%,
C=C[C@]1(C)CC[C@@H](C(=C)CN(CCOC(=O)CCCC(=O)OCCOc2no[n+]([O-])c2S(=O)(=O)c2ccccc2)C(C)C)C[C@H]1C(=C)CCl [Example 6],366 ± 19 nM,,3.38 µM,5.87 µM,4.62 µM,6.22 µM,9.97 µM,15.53 µM,20.60 µM,35.6 ± 2.8%,54.3 ± 1.3%,43.4 ± 1.5%,
"C=CC1(C)CCC(C(=C)CCl)CC1C(=C)CCl (stereo not drawn) [13,14-dichloro-β-elemene, reference compound]",,,,,,,,,,,,,"Inhibitory rates against tumor cell lines (SW620; SW620, 1 μM, 72 h): 3.3 ± 1.0%; IC50 (SW620; SW620, 72 h): > 100000 nM; Inhibitory rates against tumor cell lines (U87MG; U87MG, 1 μM): 3.5 ± 1.0%; IC50 (U87MG; U87MG): > 100000 nM; Inhibitory rates against tumor cell lines (NCI-H520; NCI-H520, 1 μM, 72 h): 0.9 ± 3.0%; IC50 (NCI-H520; NCI-H520, 72 h): > 100000 nM"
"C=C[C@]1(C)CC[C@@H](C(=C)CN(CCOC(=O)CCC(=O)OCC#CCOc2no[n+]([O-])c2S(=O)(=O)c2ccccc2)C(C)C)C[C@H]1C(=C)CCl [Example 7, 4-((4-((4-(2-((2-((1R,3R,4S)-3-(3-chloroprop-1-en-2-yl)-4-methyl-4-vinylcyclohexyl)allyl)(isopropyl)amino)ethyoxyl)-4-oxobutanoyl)oxy)but-2-yn-1-yl)oxy)-3-(phenylsulfonyl)-1,2,5-oxadiazole 2-oxide]",,,,,,,,,,,,,"IC50 (SW620; Homo sapiens, SW-620, 72 h): 1110 ± 115 nM; inhibition at 1 µM (SW620; Homo sapiens, SW-620, 72 h): 46.6 ± 1.2%; IC50 (U87MG; Homo sapiens, U-87 MG): 882 ± 34 nM; inhibition at 1 µM (U87MG; Homo sapiens, U-87 MG): 56.7 ± 0.9%; inhibition at 1 µM (NCI-H520; Homo sapiens, NCI-H520, 72 h): 44.5 ± 2.2%"

# Now from value to compound, other results behind:
"IC50 (U87MG; Homo sapiens, U-87 MG, U87MG)","IC50 (NCI-H520; Homo sapiens, NCI-H520, 72 h)",Structure (SMILES),NO-release concentrations ([1]; 5 min),NO-release concentrations ([1]; 10 min),NO-release concentrations ([1]; 20 min),NO-release concentrations ([1]; 30 min),NO-release concentrations ([1]; 60 min),NO-release concentrations ([1]; 90 min),NO-release concentrations ([1]; 120 min),inhibition at 1 µM (SW620; [2]),inhibition at 1 µM (U87MG; [4]),inhibition at 1 µM (NCI-H520; [5]),also measured
343 ± 29 nM,848 ± 53 nM,C=C[C@]1(C)CC[C@@H](C(=C)CN2CC[C@H](OC(=O)CCCC(=O)OCCOc3no[n+]([O-])c3S(=O)(=O)c3ccccc3)C2)C[C@H]1C(=C)CCl [Example 10],8.39 µM,9.44 µM,10.65 µM,12.22 µM,18.15 µM,26.49 µM,34.97 µM,45.9 ± 3.9%,53.1 ± 1.4%,46.7 ± 2%,IC50 (SW620; [3]): 1020 ± 90 nM
811 ± 16 nM,,"C=C[C@]1(C)CC[C@@H](C(=C)CN2CCCC(COC(=O)CCC(=O)OCCOc3no[n+]([O-])c3S(=O)(=O)c3ccccc3)C2)C[C@H]1C(=C)CCl (stereo partly drawn) [Example 17, 4-(2-((4-((1-(2-((1R,3R,4S)-3-(3-chloroprop-1-en-2-yl)-4-methyl-4-vinylcyclohexyl)allyl)piperidin-3-yl)methoxyl)-4-oxobutanoyl)oxy)ethyoxyl)-3-(phenylsulfonyl)-1,2,5-oxadiazole 2-oxide]",4.84 µM,5.66 µM,6.95 µM,8.44 µM,12.43 µM,17.81 µM,22.91 µM,38.3 ± 3%,51 ± 2.2%,45.4 ± 1.9%,IC50 (SW620; [3]): 1090 ± 40 nM
,1020 ± 41 nM,"C=C[C@]1(C)CC[C@@H](C(=C)CN2CC[C@H](OC(=O)CCC(=O)OCC#CCOc3no[n+]([O-])c3S(=O)(=O)c3ccccc3)C2)C[C@H]1C(=C)CCl [Example 11, 4-((4-((4-(((S)-1-(2-((1R,3R,4S)-3-(3-chloroprop-1-en-2-yl)-4-methyl-4-vinylcyclohexyl)allyl)pyrrolidine-3-ly)oxy)-4-oxobutanoyl)oxy)but-2-yn-1-yl)oxy)-3-(phenylsulfonyl)-1,2,5-oxadiazole 2-oxide]",9.49 µM,10.79 µM,14.43 µM,15.99 µM,24.58 µM,37.37 µM,50.99 µM,30.5 ± 3.3%,42 ± 6.5%,46 ± 1%,
985 ± 12 nM,,"C=C[C@]1(C)CC[C@@H](C(=C)CN2CCCC(COC(=O)CCC(=O)OCC#CCOc3no[n+]([O-])c3S(=O)(=O)c3ccccc3)C2)C[C@H]1C(=C)CCl (stereo partly drawn) [Example 19, 4-((4-((4-((1-(2-((1R,3R,4S)-3-(3-chloroprop-1-en-2-yl)-4-methyl-4-vinylcyclohexyl)allyl)piperidin-3-yl)methoxyl)-4-oxobutanoyl)oxy)but-2-yn-1-yl)oxy)-3-(phenylsulfonyl)-1,2,5-oxadiazole 2-oxide]",13.76 µM,15.87 µM,19.21 µM,22.88 µM,34.60 µM,48.73 µM,56.52 µM,40.6 ± 2.8%,41.9 ± 1.1%,46.1 ± 2.7%,
